The target in this assay is T1, Mucosa-associated lymphoid tissue lymphoma translocation protein 1 (Homo sapiens, UniProt Q9UDY8).
T1 sequence (Q9UDY8 whole entry): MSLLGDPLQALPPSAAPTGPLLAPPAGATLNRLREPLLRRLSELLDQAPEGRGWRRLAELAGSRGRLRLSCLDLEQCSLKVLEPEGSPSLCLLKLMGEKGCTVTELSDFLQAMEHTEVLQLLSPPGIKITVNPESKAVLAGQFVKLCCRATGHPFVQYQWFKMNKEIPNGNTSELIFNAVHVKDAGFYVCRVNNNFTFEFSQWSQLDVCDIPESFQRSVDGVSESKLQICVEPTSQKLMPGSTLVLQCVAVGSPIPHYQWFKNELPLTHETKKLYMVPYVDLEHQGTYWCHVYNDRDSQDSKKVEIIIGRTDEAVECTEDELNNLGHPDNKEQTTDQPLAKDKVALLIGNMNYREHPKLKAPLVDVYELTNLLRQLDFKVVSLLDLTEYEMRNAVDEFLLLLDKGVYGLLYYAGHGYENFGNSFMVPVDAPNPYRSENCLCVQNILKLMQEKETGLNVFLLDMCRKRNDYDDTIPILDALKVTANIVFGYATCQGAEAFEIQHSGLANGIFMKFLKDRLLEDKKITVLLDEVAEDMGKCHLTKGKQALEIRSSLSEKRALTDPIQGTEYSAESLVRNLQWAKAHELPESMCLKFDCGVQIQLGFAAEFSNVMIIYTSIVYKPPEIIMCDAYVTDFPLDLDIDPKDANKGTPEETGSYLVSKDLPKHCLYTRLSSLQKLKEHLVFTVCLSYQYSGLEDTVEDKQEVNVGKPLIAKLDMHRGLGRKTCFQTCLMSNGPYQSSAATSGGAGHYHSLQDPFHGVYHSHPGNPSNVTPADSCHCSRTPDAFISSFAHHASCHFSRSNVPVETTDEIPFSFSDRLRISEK
As to the kind of experiment: MALT1 Protease Assay 2. How it is done: Test compounds were dissolved in 100% DMSO at stock of 10 mM, with final DMSO concentration 0.1%. Test compounds were pre-incubated with MALT1 protein for 2 h at room temperature.

Regarding `C[C@@]1(C(F)(F)F)CN(C(=O)Nc2cnnc(C(F)F)c2)c2cnc3cc(CC(F)(F)F)nn3c21` [US20240018157, Example 197], the IC50 is more than 1000 nM.

Regarding `C[C@@]1(C(F)(F)F)CN(C(=O)Nc2cnc(-n3nccn3)c(Cl)c2)c2cnc3cc(F)nn3c21` [US20240018157, Example 39], the IC50 is less than 10 nM.

Consider `C[C@@]1(C(F)(F)F)CN(C(=O)Nc2cnc(C3COC3)c(Cl)c2)c2cnc3cc(Cl)nn3c21` [US20240018157, Example 209], for which the IC50 was more than 1000 nM.

Compound `Cn1cc([C@@]2(C(F)(F)F)CN(C(=O)Nc3cnnc(C(F)F)c3)c3cnc4cc(Cl)nn4c32)cn1` [US20240018157, Example 211] showed an IC50 of 10 to 100 nM.

With `O=C(Nc1cnc(-n2nccn2)c(Cl)c1)N1CC(O)(C(F)(F)F)c2c1cnc1cc(Cl)nn21` (centres undefined) [US20240018157, Example 201], the IC50 was less than 10 nM.

Compound `C[C@]1(C(F)(F)F)CN(C(=O)Nc2cnnc(C(F)F)c2)c2cnc3cc(OC(F)F)nn3c21` [US20240018157, Example 199] registered a 50% inhibitory concentration (IC50) of more than 1000 nM.

`C[C@H](O)c1cnn(-c2ncc(NC(=O)N3C[C@@](C)(C(F)(F)F)c4c3cnc3cc(Cl)nn43)cc2C(F)F)n1` [US20240018157, Example 126] had an IC50 of less than 10 nM.

Compound `C[C@@]1(C(F)(F)F)CN(C(=O)Nc2cnc(-n3nccc3C#N)c(C#N)c2)c2cnc3cc(Cl)nn3c21` [US20240018157, Example 87] gave an IC50 of less than 10 nM.

Compound `Cc1nnc(C(F)F)cc1NC(=O)N1C[C@@](C)(C(F)(F)F)c2c1cnc1cc(Cl)nn21` [US20240018157, Example 154] showed an IC50 of 100 to 1000 nM.

`C[C@@]1(C(F)(F)F)CN(C(=O)Nc2cnc(C(=O)NC3CC3)c(C(F)F)c2)c2cnc3cc(Cl)nn3c21` [US20240018157, Example 150] returned an IC50 of less than 10 nM.

For the compound `Cc1cn2ncc3c(c2n1)C(C)(C)CN3C(=O)Nc1cnc(C(=O)N2CC(O)C2)c(Cl)c1` [US20240018157, Example 208], the IC50 was more than 1000 nM.

As for `Cn1cc([C@]2(C(F)(F)F)CN(C(=O)Nc3cnnc(C(F)F)c3)c3cnc4cc(Cl)nn4c32)cn1` [US20240018157, Example 210], the IC50 was more than 1000 nM.

Consider `CCc1cc2ncc3c(n2n1)[C@](C)(C(F)(F)F)CN3C(=O)Nc1cnnc(C(F)F)c1` [US20240018157, Example 195], for which the IC50 lay within 10 to 100 nM.

As for `C[C@@]1(C(F)(F)F)CN(C(=O)Nc2cnc([C@@H](O)CO)c(Cl)c2)c2cnc3cc(Cl)nn3c21` [US20240018157, Example 56], the IC50 lay within 100 to 1000 nM.

For `CN(C(=O)c1ncc(NC(=O)N2C[C@@](C)(C(F)(F)F)c3c2cnc2cc(Cl)nn32)cc1C(F)F)C1CC1` [US20240018157, Example 151], the IC50 was less than 10 nM.

In turn, `CCc1nn2c3c(cnc2c1N)N(C(=O)Nc1cnc(-n2nccn2)c(Cl)c1)C[C@@]3(C)C(F)(F)F` [US20240018157, Example 158] had an IC50 of more than 1000 nM.

Turning to `Cc1cn2ncc3c(c2n1)[C@](C)(C(F)(F)F)CN3C(=O)Nc1cnc(-n2nccn2)c(Cl)c1` [US20240018157, Example 152], the IC50 was less than 10 nM.

Turning to `C[C@@]1(C(F)(F)F)CN(C(=O)Nc2cnc(-n3ncc(CO)n3)c(Cl)c2)c2cnc3cc(Cl)nn3c21` [US20240018157, Example 24], the half-maximal inhibitory concentration (IC50) was less than 10 nM.

For the compound `C[C@@]1(C(F)(F)F)CN(C(=O)N[C@@H]2CCC(F)(F)C2)c2cnc3cc(Cl)nn3c21` [US20240018157, Example 165], the IC50 was more than 1000 nM.

Take `COC[C@@]1(C(F)(F)F)CN(C(=O)Nc2cnc(-n3nccn3)c(Cl)c2)c2cnc3cc(Cl)nn3c21` [US20240018157, Example 97]: the IC50 is less than 10 nM.

Compound `COc1ncc(NC(=O)N2C[C@@](C)(C(F)(F)F)c3c2cnc2cc(Cl)nn32)cc1Cl` [US20240018157, Example 18] returned a 50% inhibitory concentration (IC50) of less than 10 nM.

The compound `Cc1nn2c3c(cnc2c1N)N(C(=O)Nc1cnc(-n2nccn2)c(Cl)c1)C[C@@]3(C)C(F)(F)F` [US20240018157, Example 160] returned an IC50 of more than 1000 nM.

Regarding `C[C@@H](O)c1cnn(-c2ncc(NC(=O)N3C[C@@](C)(C(F)(F)F)c4c3cnc3cc(Cl)nn43)cc2Cl)n1` [US20240018157, Example 77], the IC50 is less than 10 nM.

The compound `Cc1cn2ncc3c(c2n1)[C@@](C)(C(F)(F)F)CN3C(=O)Nc1cnc(-n2nccn2)c(Cl)c1` [US20240018157, Example 153] registered an IC50 of 10 to 100 nM.

`C[C@@]1(C(F)(F)F)CN(C(=O)NC2CCC3(CCCO3)CC2)c2cnc3cc(Cl)nn3c21` (some centres undefined) [US20240018157, Example 174]: the IC50 was more than 1000 nM.

`COc1cnc(C(F)(F)F)cc1NC(=O)N1C[C@@](C)(C(F)(F)F)c2c1cnc1cc(Cl)nn21` [US20240018157, Example 66]: the IC50 is less than 10 nM.

In turn, `C[C@@]1(C(F)(F)F)CN(C(=O)Nc2cc(Cl)c(C(=O)O)c(O[C@H]3CCNC3)n2)c2cnc3cc(Cl)nn3c21` [US20240018157, Example 185] gave an IC50 of more than 1000 nM.

In turn, `Cc1cn2ncc3c(c2n1)C(C)(C)CN3C(=O)Nc1cnc(C(=O)N(C)C)c(Cl)c1` [US20240018157, Example 206] registered a 50% inhibitory concentration (IC50) of more than 1000 nM.

`CC1(C)CN(C(=O)Nc2cnc(-n3nccn3)c(Cl)c2)c2cnc3cc(Cl)nn3c21` [US20240018157, Example 1] gave an IC50 of 10 to 100 nM.

In the case of `CNc1cc(NC(=O)N2C[C@@](C)(C(F)(F)F)c3c2cnc2cc(Cl)nn32)cnc1-n1ccnn1` [US20240018157, Example 187], the IC50 is more than 1000 nM.

For `C[C@@]1(C(F)(F)F)CN(C(=O)Nc2cnc(-n3ncc([C@H](O)CO)n3)c(Cl)c2)c2cnc3cc(Cl)nn3c21` [US20240018157, Example 70], the IC50 is less than 10 nM.

`C[C@@]1(C(F)(F)F)CN(C(=O)Nc2cnn(S(C)(=O)=O)c2)c2cnc3cc(Cl)nn3c21` [US20240018157, Example 94] displayed an IC50 of 100 to 1000 nM.

`CNc1nc(NC(=O)N2C[C@@](C)(C(F)(F)F)c3c2cnc2cc(Cl)nn32)ccc1-n1nccn1` [US20240018157, Example 192] yielded an IC50 of more than 1000 nM.

Take `C[C@]1(C(F)F)CN(C(=O)Nc2cnc(-n3nccn3)c(Cl)c2)c2cnc3cc(Cl)nn3c21` [US20240018157, Example 129]: the IC50 was 10 to 100 nM.

On to `CN1CCOC(c2ncc(NC(=O)N3C[C@@](C)(C(F)(F)F)c4c3cnc3cc(Cl)nn43)cc2Cl)C1` (some centres undefined) [US20240018157, Example 167], for which the IC50 was more than 1000 nM.

Consider `C[C@@]1(C(F)(F)F)CN(C(=O)Nc2cnc(-n3nccn3)c(C#N)c2)c2cnc3cc(F)nn3c21` [US20240018157, Example 91], for which the IC50 was less than 10 nM.

For the compound `C[C@@]1(C(F)(F)F)CN(C(=O)Nc2cnc(-n3cc(CO)cn3)c(Cl)c2)c2cnc3cc(Cl)nn3c21` [US20240018157, Example 57], the IC50 was less than 10 nM.

In the case of `C[C@@]1(C(F)(F)F)CN(C(=O)Nc2cc(N=S(C)(C)=O)nc(C(F)(F)F)c2)c2cnc3cc(Cl)nn3c21` [US20240018157, Example 83], the IC50 was less than 10 nM.

As to `C[C@@]1(C(F)(F)F)CN(C(=O)Nc2cnnc(C(F)F)c2)c2cnc3c(F)c(Cl)nn3c21` [US20240018157, Example 138], the IC50 was 10 to 100 nM.

Compound `C[C@@]1(C(F)(F)F)CN(C(=O)N[C@H]2CCCC(F)(F)C2)c2cnc3cc(Cl)nn3c21` [US20240018157, Example 53] registered a half-inhibitory concentration (IC50) of 100 to 1000 nM.

For `C[C@@]1(C(F)(F)F)CN(C(=O)Nc2cnnc(C(F)F)c2)c2cnc3cc(F)nn3c21` [US20240018157, Example 114], the IC50 was more than 1000 nM.

`C[C@@]1(C(F)(F)F)CN(C(=O)Nc2cnnc(C(F)F)c2)c2cnc3cc(C#N)nn3c21` [US20240018157, Example 190] yielded an IC50 of more than 1000 nM.

`CCc1cc2ncc3c(n2n1)[C@@](C)(C(F)(F)F)CN3C(=O)Nc1cnnc(C(F)F)c1` [US20240018157, Example 194] displayed an IC50 of more than 1000 nM.

`C[C@@]1(C(F)(F)F)CN(C(=O)Nc2cc(C(F)F)ns2)c2cnc3cc(Cl)nn3c21` [US20240018157, Example 179] registered an IC50 of more than 1000 nM.

Regarding `CC1(C)CC(NC(=O)N2C[C@@](C)(C(F)(F)F)c3c2cnc2cc(Cl)nn32)CCO1` (some centres undefined) [US20240018157, Example 170], the IC50 is more than 1000 nM.

In turn, `C[C@]1(C(F)(F)F)CN(C(=O)Nc2cnnc(C(F)F)c2)c2cnc3cc(CC(F)F)nn3c21` [US20240018157, Example 155] gave an IC50 of 100 to 1000 nM.

As for `C[C@@]1(C(F)(F)F)CN(C(=O)Nc2cnc(-n3nccn3)c(Cl)c2)c2cnc3c(F)cnn3c21` [US20240018157, Example 146], the IC50 was less than 10 nM.

`CN1CC(n2nc(NC(=O)N3C[C@@](C)(C(F)(F)F)c4c3cnc3cc(Cl)nn43)cc2Cl)C1` [US20240018157, Example 163]: the IC50 is more than 1000 nM.

Regarding `C[C@]1(C(F)(F)F)CN(C(=O)Nc2ccnc(C(F)F)c2)c2cnc3cc(F)nn3c21` [US20240018157, Example 89], the IC50 lay within 100 to 1000 nM.
